Test systems include MALME-3M melanoma; SN12C renal; HOP-62 NSCLC; NCI-H226 lung; EKVX NSCLC; SW-620 colon; OVCAR-3 ovarian; A498 renal; RXF 393 renal; DU-145 prostate.
Holding throughout (test): NCI tumour cell line growth inhibition, 48 h

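How tested: cells in 96-well plates exposed to compound for 48 hours at five concentrations. Definition used: TGI = concentration required for complete inhibition of growth.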

Here are results for 15 compounds from PubChem BioAssay (NCI).

Consider `COc1ccc(N2C(=O)/C(=C(\C)c3cc4ccccc4oc3=O)N=C2c2cc([N+](=O)[O-])ccc2Cl)cc1`, for which the TGI in the test on MALME-3M melanoma, in the test with SN12C renal, in the test with HOP-62 NSCLC, with NCI-H226 lung, with EKVX NSCLC and with SW-620 colon was above 100 µM each time. Further, the TGI was above 100 µM in the test with OVCAR-3 ovarian and 82.6 µM with A498 renal.

Consider `O=C(C=P(c1ccccc1)(c1ccccc1)c1ccccc1)c1ccc(-c2cccc([N+](=O)[O-])c2)s1`, for which the TGI in the test on MALME-3M melanoma, with SN12C renal, in the test on HOP-62 NSCLC, in the test with EKVX NSCLC, in the test with SW-620 colon and in the test with RXF 393 renal was above 100 µM in each case. For the same compound, the TGI with OVCAR-3 ovarian is above 100 µM; in the test on A498 renal, 81.9 µM; in the test on DU-145 prostate, above 100 µM.

Take `CCOC(=O)c1c(-c2ccc(OC)cc2)c(C#N)c(=S)n(C2OC(COC(C)=O)C(OC(C)=O)C(OC(C)=O)C2OC(C)=O)c1-c1ccccc1` (stereo not drawn): the TGI in the test on MALME-3M melanoma, with SN12C renal, in the test with HOP-62 NSCLC, in the test on SW-620 colon, in the test with RXF 393 renal and in the test on OVCAR-3 ovarian was above 100 µM throughout. For the same compound, the TGI in the test with DU-145 prostate was above 100 µM.

On to `CCOC(=O)C1(C#N)C(c2ccccc2)CC(O)(c2ccc(OC)cc2)C(C(=O)c2ccc(OC)cc2)C1c1ccccc1` (stereo not drawn), for which the TGI in the test on MALME-3M melanoma, in the test on SN12C renal, with HOP-62 NSCLC, with NCI-H226 lung, in the test with EKVX NSCLC and with SW-620 colon was above 100 µM throughout. Besides, the TGI in the test with RXF 393 renal and with OVCAR-3 ovarian was above 100 µM each time.

As to `COC(=O)CC(C#N)(OP1(=O)OC(c2ccccc2)C(C)N1C)c1ccccc1` (stereo not drawn), the TGI is above 100 µM in the test on MALME-3M melanoma; 77 µM with SN12C renal; above 100 µM in the test with HOP-62 NSCLC; 60.3 µM in the test on EKVX NSCLC; 43.6 µM in the test on SW-620 colon; 52.3 µM with RXF 393 renal. Further, the TGI in the test on OVCAR-3 ovarian is 42.6 µM; in the test with A498 renal, above 100 µM; in the test on DU-145 prostate it was above 100 µM.

`CC(C)(C)[Si](C)(C)OCC1OC(n2ccc(N)nc2=O)C(O[Si](C)(C)C(C)(C)C)C1O[Si](C)(C)C(C)(C)C` (stereo not drawn): the TGI stood at 4.11 µM in the test with MALME-3M melanoma; 10.2 µM in the test with SN12C renal; 4.85 µM with HOP-62 NSCLC; 2.86 µM in the test with NCI-H226 lung; 9.83 µM in the test on EKVX NSCLC; 2.93 µM in the test with SW-620 colon. Further, the TGI is 3.3 µM with OVCAR-3 ovarian and 23.7 µM with DU-145 prostate.

Turning to `CCCCN(CCCC)CC(O)c1cc(-c2ccc(C(F)(F)F)cc2)nc(-c2ccc(C(F)(F)F)cc2)c1` (stereo not drawn), the TGI in the test with MALME-3M melanoma, with SN12C renal, in the test on HOP-62 NSCLC, in the test with EKVX NSCLC, in the test with SW-620 colon and with OVCAR-3 ovarian was above 100 µM in each case. For the same compound, the TGI with A498 renal and in the test with DU-145 prostate was above 100 µM in each case.

With `Nc1ncnc2c1ccn2C/C=C\CO`, the TGI with MALME-3M melanoma, with SN12C renal, with HOP-62 NSCLC, in the test on EKVX NSCLC, in the test on SW-620 colon and in the test with RXF 393 renal was above 100 µM in each case. In addition, the TGI in the test on OVCAR-3 ovarian, with A498 renal and in the test with DU-145 prostate was above 100 µM throughout.

Regarding `CC(C)CC1C(=O)NCCC(NC(=O)C(Cc2ccc(OC(C)(C)C)cc2)NC(=O)OC(C)(C)C)C(=O)NC(Cc2ccccc2)C(=O)NC(Cc2ccccc2)NC1=O` (stereo not drawn), the TGI with MALME-3M melanoma came to 32 µM; with SN12C renal it was 39.8 µM; in the test with HOP-62 NSCLC it was 37.7 µM; in the test on NCI-H226 lung, 21.2 µM; in the test on EKVX NSCLC it was 39.1 µM; with SW-620 colon, 13.6 µM. Moreover, the results for the TGI with RXF 393 renal, with OVCAR-3 ovarian and in the test on DU-145 prostate were 27.2 µM, 19.9 µM and above 100 µM, respectively.

For `COc1cc(C2SCC(=O)N2c2ccccn2)cc(OC)c1OC` (stereo not drawn), the TGI in the test on SN12C renal, in the test on NCI-H226 lung, with EKVX NSCLC, in the test on SW-620 colon, in the test on OVCAR-3 ovarian and in the test with A498 renal was above 100 µM each time. In the test on DU-145 prostate, this compound came in with a TGI above 100 µM.

For `O=c1[nH]c2c(nc1NC13CC4CC(CC(C4)C1)C3)c(=O)oc1ccccc12`, the TGI was above 100 µM with MALME-3M melanoma; above 100 µM with SN12C renal; above 100 µM in the test on HOP-62 NSCLC; 85.6 µM in the test with NCI-H226 lung; above 100 µM in the test with EKVX NSCLC; above 100 µM in the test on SW-620 colon. Also, the TGI in the test on RXF 393 renal and with OVCAR-3 ovarian was above 100 µM throughout.

As for `COC(=O)CCC1=CCC2(SC)C(=O)Nc3cccc1c32` (stereo not drawn), the TGI with MALME-3M melanoma, with SN12C renal, in the test on HOP-62 NSCLC, in the test on NCI-H226 lung, in the test with EKVX NSCLC and in the test on SW-620 colon was above 100 µM throughout. For the same compound, the TGI in the test on OVCAR-3 ovarian and in the test with DU-145 prostate was above 100 µM throughout.

Take `O=c1cnn(C2OC(C(O)CO)C(O)C2O)c(=O)[nH]1` (stereo not drawn): the TGI with MALME-3M melanoma, in the test with SN12C renal, in the test with HOP-62 NSCLC, with NCI-H226 lung, in the test with EKVX NSCLC and with SW-620 colon was above 100 µM throughout. The TGI in the test on RXF 393 renal, with OVCAR-3 ovarian and in the test with DU-145 prostate was above 100 µM throughout.

On to `CCCC(=O)n1[nH]c(=O)n(-c2ccc(Cl)cc2)c1=O`, for which the TGI in the test on MALME-3M melanoma, in the test on SN12C renal, in the test on HOP-62 NSCLC, in the test with NCI-H226 lung, in the test with EKVX NSCLC and with SW-620 colon was above 100 µM throughout. In addition, the TGI with RXF 393 renal, with OVCAR-3 ovarian and with DU-145 prostate was above 100 µM each time.

As to `COc1cccc2c1OC(c1ccc(Cl)cc1)C([N+](=O)[O-])=C2` (stereo not drawn), the TGI with MALME-3M melanoma came out at 5.32 µM; with SN12C renal, 8.41 µM; in the test on HOP-62 NSCLC, 4.89 µM; in the test on EKVX NSCLC, 24.2 µM; in the test on RXF 393 renal, 3.32 µM; with OVCAR-3 ovarian it was 7.08 µM. In the test on DU-145 prostate, the TGI came out at 13.2 µM.
